One assay has as its system HCT116 WT cells. As to the kind of experiment: HCT116 proliferation assay, WT cells (CellTiter-Glo, 6 days). It is filed as cell-based. Conditions: Homo sapiens, HCT-116, 144 h, read-out: Prolif_HCT116-WT IC50. Here is the method:
(§1) HCT116 MTAP null and WT cells were seeded in 96-well tissue culture plates in RPMI 1640 media + 10% fetal bovine serum. Plates were incubated overnight at 37° C. and 5% CO2. Cells were then treated with a 8- or 9-point serial dilution of compound, using a top concentration of 1 or 10 µM, 1:3 serial dilution steps and, a DMSO-only control. Cells were incubated in the presence of drug for 6 days. Effects on cell viability were measured with the CellTiter-Glo® Luminescent Cell Viability Assay (Promega) per manufacturer’s recommendation. Assay plates were read on an EnVision™ Multilabel Reader using the Ultra-Sensitive luminescence module.

The next assay deals with HCT116 MTAP null cells. As to the kind of experiment: HCT116 proliferation assay, MTAP null cells (CellTiter-Glo, 6 days). The assay is classed as cell-based. Conditions: HCT116-MTAP null, 144 h, read-out: Protif_ HCT116-MTAP null IC50. Here is the method:
as §1

28 compounds from patent US20230159510A1, “NOVEL PRMT5 INHIBITORS” (AMGEN INC., priority 2020, published 2023) can be followed below.

Molecules are shown by their SMILES. Where only a bound is given, the exact number is not on record here.

Turning to `CC(c1cscn1)N(Cc1ccc(C(F)(F)F)nn1)C(=O)c1cnc2nc(N)c(Br)cc2c1` (centres unmarked) [Example 766, 7-amino-6-bromo-N-(1-(thiazol-4-yl)ethyl)-N-((6-(trifluoromethyl)pyridazin-3-yl)methyl)-1,8-naphthyridine-3-carboxamide], the IC50 was found to be 5.9 µM in the assay with HCT116 WT cells and 0.161 µM in the assay with HCT116 MTAP null cells.
As to `C[C@H](c1ncccc1F)N(Cc1ccc(C(F)(F)F)nn1)C(=O)c1ccc2nc(N)c(Br)cc2c1` [Example 737, 2-amino-3-bromo-N-((1R)-1-(3-fluoro-2-pyridinyl)ethyl)-N-((6-(trifluoromethyl)-3-pyridazinyl)methyl)-6-quinolinecarboxamide], the IC50 with HCT116 WT cells came out at 6.8 µM; in the assay on HCT116 MTAP null cells, 0.148 µM.
On the same counts, the results for `COc1ccc(CN(C(=O)c2ccc3nc(N)c(C)cc3c2)[C@H](C)c2ncn(C)n2)nn1` (single isomer, unassigned) [Example 785] are 2.6 µM and 0.123 µM.
On the same counts, the results for `Cc1cc2cc(C(=O)N(Cc3ccc(C(F)(F)F)cn3)C(C)c3ccnc(F)c3)ccc2nc1N` (centres unmarked) [Example 797, 2-amino-N-(1-(2-fluoropyridin-4-yl)ethyl)-3-methyl-N-((5-(trifluoromethyl)pyridin-2-yl)methyl)quinoline-6-carboxamide] are 3.82 µM and 0.229 µM.
As to `Cc1nc(CN(C(=O)c2cnc3nc(N)c(I)cc3c2)[C@H](C)c2ncccn2)ccc1C#N` [Example 840, (R)-7-amino-N-((5-cyano-6-methylpyridin-2-yl)methyl)-6-iodo-N-(1-(pyrimidin-2-yl)ethy1)-1,8-naphthyridine-3-carboxamide], the results for the IC50 in the assay on HCT116 WT cells and in the assay on HCT116 MTAP null cells were 5.5 µM and 0.09 µM, respectively.
In the case of `Cc1cc2cc(C(=O)N(Cc3cc(Cl)c(C#N)cn3)[C@H](C)c3ncccn3)ccc2nc1N` [Example 807, (R)-2-amino-N-((4-chloro-5-cyanopyridin-2-yl)methyl)-3-methyl-N-(1-(pyrimidin-2-yl)ethyl)quinoline-6-carboxamide], the IC50 is 0.764 µM in the assay on HCT116 WT cells and 0.075 µM with HCT116 MTAP null cells.
In the case of `COc1ccc(CN(C[C@H](OC)C(F)(F)F)C(=O)c2ccc3nc(N)c(C)cc3c2)nn1` (single isomer, unassigned) [Example 774], the results for the IC50 with HCT116 WT cells and in the assay on HCT116 MTAP null cells were 5.21 µM and 0.139 µM, respectively.
For the compound `CCOC(C)CN(Cc1ccc(C(F)(F)F)cn1)C(=O)c1ccc2nc(N)c(C)cc2c1` (centres unmarked) [Example 584, 2-amino-N-(2-ethoxypropyl)-3-methyl-N-((5-(trifluoromethyl)pyridin-2-yl)methyl)quinoline-6-carboxamide], the values for the IC50 in the assay with HCT116 WT cells and in the assay on HCT116 MTAP null cells were above 1 µM and 0.29 µM, respectively.
For `Cc1cc2cc(C(=O)N(Cc3ccc(C(F)(F)F)nn3)[C@@H]3CCCn4ccnc43)ccc2nc1N` (single isomer, unassigned) [Example 813], the values for the IC50 in the assay with HCT116 WT cells and in the assay on HCT116 MTAP null cells were 2.63 µM and 0.098 µM, respectively.
On to `Cc1cc2cc(C(=O)N(Cc3cc4c(cn3)OCCC4)C(C)c3ncccn3)ccc2nc1N` (centres unmarked) [Example 741, 2-amino-N-((3,4-dihydro-2H-pyrano[2,3-c]pyridin-6-yl)methyl)-3-methyl-N-(1-(pyrimidin-2-yl)ethyl)quinoline-6-carboxamide], for which the IC50 in the assay on HCT116 WT cells amounted to 8.36 µM; in the assay on HCT116 MTAP null cells it was 0.27 µM.
As to `Cc1cc2cc(C(=O)N(Cc3ccc(N4CCC(C(N)=O)CC4)cc3)Cc3ccnc4[nH]ccc34)ccc2nc1N` [Example 573, N-((1H-pyrrolo[2,3-b]pyridin-4-yl)methyl)-2-amino-N-(4-(4-carbamoylpiperidin-1-yl)benzyl)-3-methylquinoline-6-carboxamide], the IC50 is above 1 µM in the assay on HCT116 WT cells and 0.76 µM in the assay with HCT116 MTAP null cells.
On to `Cc1cc2cc(C(=O)N(Cc3ccc(C(F)(F)F)cn3)Cc3ncc(Cl)cn3)ccc2nc1N` [Example 339, 2-amino-N-((5-chloro-2-pyrimidinyl)methyl)-3-methyl-N-((5-(trifluoromethyl)-2-pyridinyl)methyl)-6-quinolinecarboxamide], for which the IC50 in the assay with HCT116 WT cells is above 10 µM; in the assay with HCT116 MTAP null cells it was 0.405 µM.
On the same counts, the results for `N#CC[C@@H](C1CC1)N(Cc1ccc(C#N)cn1)C(=O)c1ccc2nc(N)c(Br)cc2c1` [Example 776, (S)-2-amino-3-bromo-N-(2-cyano-1-cyclopropylethyl)-N-((5-cyanopyridin-2-yl)methyl)quinoline-6-carboxamide] are 7.23 µM and 0.195 µM.
On to `Cc1cc2cc(C(=O)N(Cc3ccc(C(F)(F)F)cn3)Cc3csnn3)ccc2nc1N` [Example 564, 2-amino-3-methyl-N-(thiadiazol-4-ylmethyl)-N-[[5-(trifluoromethyl)-2-pyridyl]methyl] quinoline-6-carboxamide], for which the IC50 was above 1 µM with HCT116 WT cells and 0.102 µM with HCT116 MTAP null cells.
On the same counts, the results for `Cc1cc2cc(C(=O)N(Cc3ccc(C(F)(F)F)cn3)[C@@H]3CCOC[C@H]3F)ccc2nc1N` (single isomer, unassigned) [Example 781] are 3.4 µM and 0.26 µM.
On the same counts, the results for `C[C@H](c1ncccn1)N(Cc1ccc(OC(F)F)nn1)C(=O)c1ccc2nc(N)c(Br)cc2c1` [Example 746, (R)-2-amino-3-bromo-N-((6-(difluoromethoxy)pyridazin-3-yl)methyl)-N-(1-(pyrimidin-2-yl)ethyl)quinoline-6-carboxamide] are 7.26 µM and 0.139 µM.
Regarding `Cc1cc2cc(C(=O)N(Cc3ncccc3Cl)[C@H](C)c3ncccn3)c(F)cc2nc1N` (single isomer, unassigned) [Example 784], the IC50 with HCT116 WT cells stood at 4.7 µM; in the assay on HCT116 MTAP null cells, 0.261 µM.
On the same counts, the results for `COC(=O)N1CCC(c2ccc(CN(C(=O)c3ccc4nc(N)c(C)cc4c3)[C@H](C)c3ncccn3)nc2)CC1` [Example 822, methyl (R)-4-(6-((2-amino-3-methyl-N-(1-(pyrimidin-2-yl)ethyl)quinoline-6-carboxamido)methyl)pyridin-3-yl)piperidine-1-carboxylate] are 0.763 µM and 0.045 µM.
For `Cc1cc2cc(C(=O)N(Cc3ccc(C(F)(F)F)cn3)Cc3ncoc3C)ccc2nc1N` [Example 579, 2-amino-3-methyl-N-[(5-methyloxazol-4-yl)methyl]-N-[[5-(trifluoromethyl)-2-pyridyl]methyl]quinoline-6-carboxamide], the IC50 was above 1 µM in the assay with HCT116 WT cells and 0.095 µM in the assay on HCT116 MTAP null cells.
As for `CCOc1ccc(CN(C(=O)c2cnc3nc(N)c(I)cc3c2)[C@H](C)c2ncccn2)nn1` [Example 772, (R)-7-amino-N-((6-ethoxypyridazin-3-yl)methyl)-6-iodo-N-(1-(pyrimidin-2-yl)ethyl)-1,8-naphthyridine-3-carboxamide], the IC50 was found to be 17.6 µM with HCT116 WT cells and 0.437 µM with HCT116 MTAP null cells.
On the same counts, the results for `Cc1cc2cc(C(=O)N(Cc3ccc(C#N)c(C)n3)[C@H](C)c3ncccn3)ccc2nc1N` [Example 750, 2-amino-N-((5-cyano-6-methyl-2-pyridinyl)methyl)-3-methyl-N-((1R)-1-(2-pyrimidinyl)ethyl)-6-quinolinecarboxamide] are 3.15 µM and 0.177 µM.
On the same counts, the results for `Cc1cc2cc(C(=O)N(Cc3ccc(C(F)(F)F)cn3)[C@@H]3CCC[C@H]3OC(F)F)ccc2nc1N` [Example 816, 2-amino-N-((1R,2R)-2-(difluoromethoxy)cyclopentyl)-3-methyl-N-((5-(trifluoromethyl)pyridin-2-yl)methyl)quinoline-6-carboxamide] are 0.368 µM and 0.018 µM.
As to `N#Cc1ccc(CN(C(=O)c2ccc3nc(N)c(Br)cc3c2)[C@@H](c2ncccn2)C2CC2)nc1` [Example 738, 2-amino-3-bromo-N-((5-cyano-2-pyridinyl)methyl)-N-((R)-cyclopropyl(2-pyrimidinyl)methyl)-6-quinolinecarboxamide], the IC50 came to 4.3 µM in the assay on HCT116 WT cells and 0.173 µM in the assay with HCT116 MTAP null cells.
For `C[C@H](c1cscn1)N(Cc1ccc(C(F)(F)F)nn1)C(=O)c1cnc2nc(N)c(Br)cc2c1` (single isomer, unassigned) [Example 787], the concentration for half-maximal inhibition (IC50) with HCT116 WT cells stood at 1.74 µM; in the assay on HCT116 MTAP null cells, 0.059 µM.
As for `CC1CCCC1N(Cc1ccc(C(F)(F)F)cn1)C(=O)c1ccc2nc(N)c(Br)cc2c1` (centres unmarked) [Example 831, 2-amino-3-bromo-N-(2-methylcyclopentyl)-N-((5-(trifluoromethyl)pyridin-2-yl)methyl)quinoline-6-carboxamide], the IC50 with HCT116 WT cells is above 10 µM; with HCT116 MTAP null cells, 0.44 µM.
For `Cc1cc2cc(C(=O)N(Cc3ccc(C(F)(F)F)cn3)[C@@H]3CCOC[C@H]3O)ccc2nc1N` (mixture of isomers) [Example 803, 2-amino-N-((3R,4S)-3-hydroxytetrahydro-2H-pyran-4-yl)-3-methyl-N-((5-(trifluoromethyl)-2-pyridinyl)methyl)-6-quinolinecarboxamide and 2-amino-N-((3S,4R)-3-hydroxytetrahydro-2H-pyran-4-yl)-3-methyl-N-((5-(trifluoromethyl)-2-pyridinyl)methyl)-6-quinolinecarboxamide], the values for the IC50 with HCT116 WT cells and in the assay with HCT116 MTAP null cells were above 10 µM and 0.412 µM, respectively.
On the same counts, the results for `Cc1c(Br)c(N)nc2ncc(C(=O)N(Cc3ccc(C(F)(F)F)cn3)[C@H](C)c3ncccn3)cc12` [Example 743, (R)-7-amino-6-bromo-5-methyl-N-(1-(pyrimidin-2-yl)ethyl)-N-((5-(trifluoromethyl)pyridin-2-yl)methyl)-1,8-naphthyridine-3-carboxamide] are 0.694 µM and 0.054 µM.
Take `C[C@H](c1ncccn1)N(Cc1cc2c(cn1)OCCC2)C(=O)c1ccc2nc(N)c(Br)cc2c1` [Example 777, (R)-2-amino-3-bromo-N-((3,4-dihydro-2H-pyrano[2,3-c]pyridin-6-yl)methyl)-N-(1-(pyrimidin-2-yl)ethyl)quinoline-6-carboxamide]: the figures for the IC50 in the assay with HCT116 WT cells and in the assay on HCT116 MTAP null cells were above 10 µM and 0.372 µM, respectively.
